Test results taken from patent publication EP0734206B1, “SURFACTANTS PROVIDING ENHANCED EFFICACY AND/OR RAINFASTNESS TO PESTICIDE FORMULATIONS” (MONSANTO COMPANY, priority 1993, dated 1995).

How the values were obtained:
[1] = system: Elymus repens (quackgrass, AGRRE); assay: greenhouse test of rainfastness of glyphosate formulations (Example 5); type: in vivo; details: formulation 31% glyphosate a.e., 7.5% cocoamine quat 2EO, 8.6% nonionic surfactant
Protocol: (§1) Comparative herbicidal activity with and without simulated rain was determined in greenhouse and field tests. For greenhouse tests, seeds or propagules of selected species were planted in 10.2 cm square pots of soil with added fertilizer. Temperature and relative humidity were allowed to fluctuate within limits defined for each test described in the following Examples. Plants were allowed to grow until the desired growth stage or size (defined for each test) for spraying. Pots were selected for uniformity before treatment and three replicate pots were assigned to each treatment. Spray solutions were prepared by dilution or dissolution of concentrate herbicide formulations in water. When desired to test "tank mix" application of surfactant compositions, these were added to the spray solution at the required concentration. Spraying was performed with a device which simulates agricultural field spraying equipment, delivering a fine spray at a pressure of about 207 kilopascals. Speed of travel of the spray device over the plants was adjusted to give the desired spray volume (defined for each test). For logistical reasons, all three replicates of each treatment were sprayed together. "Rain" treatments were applied by repeated passage of a coarse spray of water over the plants at some desired period of time after herbicide spraying. The amount and duration of "rain" were noted. After spraying and "rain" treatment, the plants were returned to the greenhouse. Herbicidal efficacy was evaluated by visual assessment at one or more selected time periods after treatment and recorded as "percent control" on an arbitrary scale by comparison with untreated plants. On this scale 0 means no visible effect and 100 means death of all plants. In the Examples, percent control values given are the means of three replicates.
Aqueous concentrate formulations of the isopropylamine salt of glyphosate were prepared at a glyphosate a.e. loading of 31% (equivalent to about 360 g a.e./liter). All contained 7.5% cocoamine quat 2EO and 8.6% nonionic surfactant. Formulations of the present invention contained as the nonionic C11-15 secondary alcohol 9EO or C12 branched secondary alcohol 10EO; for comparison, other formulations were made containing nonionics disclosed as rainfastness aids in the prior art such as 2,4,7,9-tetramethyl-5-decyne-4,7-diol 10EO or nonylphenol 8EO. These formulations were tested for rainfastness in a greenhouse test.
The test species was Elymus repens (quackgrass, AGRRE). All glyphosate formulations were applied at both 0.84 and 1.68 kg a.e./ha (0.75 and 1.5 lb a.e./acre) in a spray volume of 20 gallons/acre (187 l/ha. Commercial Roundup herbicide was included as a standard. Simulated rain was applied in the amount of 6 mm over a period of 15 minutes, beginning 1 hour after glyphosate treatment. Data on percent inhibition without and with "rain" are presented in Table 6. Table 6

[2] = system: Panicum maximum (guineagrass, PANMA); assay: greenhouse test of rainfastness of glyphosate formulations (Example 4); type: in vivo; details: 1.68 kg a.e./ha, formulation 18.4% glyphosate a.e., 7% cocoamine quat 2EO, 10.2% nonionic surfactant
Protocol: as §1
Aqueous concentrate formulations of the isopropylamine salt of glyphosate were prepared at a glyphosate a.e. loading of 18.4% (equivalent to about 200 g a.e./liter). All contained 7% cocoamine quat 2EO and 10.2% nonionic surfactant. Formulations of the present invention contained as the nonionic one of several secondary alcohol ethoxylates; other formulations were made containing nonionics such as Silwet L-77, 2,4,7,9-tetramethyl-5-decyne-4,7-diol 10EO, nonylphenol 8EO, 10EO and 12EO and C12-15 primary alcohol 7EO, 9EO and 12EO. These formulations were tested for rainfastness in a greenhouse test.
The test species was Panicum maximum (guineagrass, PANMA). All glyphosate formulations were applied at 1.68 kg a.e./ha (1.5 lb a.e./acre) in a spray volume of 185 l/ha (20 gallons/acre). Commercial Roundup herbicide was included as a standard. Simulated rain was applied in the amount of 6 mm over a period of 15 minutes, beginning 1 hour after glyphosate treatment.

barley cv. Pennco = assay: short-term whole plant assay, barley regrowth after glyphosate treatment and trimming (Examples 7-8); type: in vivo; details: T/Am 5 0, S/Al 9 0 % w/v, 7 days after treatment
Excerpt: In Examples 7 and 8, a short-term whole plant assay was used to evaluate relative efficacy of aqueous glyphosate compositions containing tallowamine 5EO and C11-15 secondary alcohol 9EO in different concentrations and proportions relative to one another.
Equal volumes of uniformly sized seeds (20-25 in number) of barley cv. Pennco were sown in a growing medium consisting of a 3:2:1 sand/soil/peat mixture in 4 inch square plastic pots. Pots were placed in a controlled environment growth chamber providing a 14 hour photoperiod, day and night temperatures of 78°F and 66°F respectively, and a relative humidity in the range from 30% to 50%. Light was provided by a combination of metal halide and sodium vapor lamps. All pots were bottom watered at 1200 hr on the first day, resulting in rapid saturation of the growing medium. Seedling emergence occurred on the third and fourth days. On the seventh day, all pots were fertilized by bottom watering with a Peters 20-20-20 fertilizer containing 475 ppm soluble nitrogen.
On the eighth day, pots were sorted into 6 replicate blocks according to plant size. Treatments, including no-treatment controls, were randomly assigned within each block, one treatment per pot.
Plants were treated with glyphosate compositions in rapid succession between 0830 hr and 0900 hr on the ninth day, when average plant height was 13-15 cm and the second leaf was just beginning to elongate. Compositions were applied using a calibrated single-nozzle track sprayer delivering 187 l/ha through a Teejet 8001E nozzle at 276 kilopascals. Plants were removed from the growth chamber immediately before treatment and returned to the same growth chamber immediately after treatment. Pots were spatially arranged in a randomized complete block experimental design. At 6 hours after treatment plants in all pots were trimmed by cutting to 20 mm above the top edge of the pot. This removed approximately 90% of the barley leaf area. Pots were bottom watered once daily for the remainder of the study. Data collection took place on the sixteenth day, 7 days after treatment.
Average height of barley regrowth in each pot was measured to the nearest 5 mm increment, from the earlier cutting height 20 mm above the edge of the pot. All plants in each pot were then cut at 20 mm above the edge of the pot and total fresh weight was recorded.
All compositions in this Example contained glyphosate as the isopropylamine salt at a concentration calculated to deliver 0.42 kg a.e./ha. Polyoxyethylene tallowamine 5EO (T/Am 5) concentration was varied independently of C11-15 secondary alcohol 9EO (S/Al 9) concentration as will be clear from the tables below. […]

[3] = cloud point of aqueous concentrate glyphosate formulations (Examples 2 and 3); type: physicochemical; details: 31% glyphosate a.e. as isopropylamine salt
Protocol: Aqueous concentrate formulations of the isopropylamine salt of glyphosate were prepared at a glyphosate a.e. loading of 31% (equivalent to about 360 g a.e./liter). All contained 3.5% cocoamine quat 2EO. Secondary alcohol ethoxylates of the invention were included at a range of levels and cloud point of the formulation was determined. To measure cloud point, a sample of each formulation in a test tube was heated in a water bath until it became cloudy. The test tube was then removed from the water bath and the sample stirred with a thermometer until it became clear. The temperature at which the sample became clear was recorded as the cloud point of the formulation.
Aqueous concentrate formulations of the isopropylamine salt of glyphosate were prepared at the same glyphosate a.e. loading as in Example 2, but containing higher levels of cocoamine quat 2EO. Secondary alcohol ethoxylates of the invention were included at a range of levels and cloud point of the formulation was determined by the same procedure as in Example 2.

[4] = 0.84 kg a.e./ha, Rain 6 mm over 15 minutes, 1 hour after treatment
[5] = 1.68 kg a.e./ha, Rain 6 mm over 15 minutes, 1 hour after treatment
[6] = Rain 6 mm over 15 minutes, 1 hour after treatment
[7] = averaged over glyphosate 0.07, 0.14 and 0.28 kg a.e./ha
[8] = 4% secondary alcohol, 3.5% cocoamine quat 2EO
[9] = 5% secondary alcohol, 3.5% cocoamine quat 2EO
[10] = 5% secondary alcohol, 5% cocoamine quat 2EO
[11] = 6% secondary alcohol, 3.5% cocoamine quat 2EO
[12] = 6% secondary alcohol, 5% cocoamine quat 2EO
[13] = 7% secondary alcohol, 3.5% cocoamine quat 2EO
[14] = 7% secondary alcohol, 5% cocoamine quat 2EO
[15] = 8% secondary alcohol, 5% cocoamine quat 2EO

Compound | Percent inhibition of quackgrass 28 DAT ([1]; 0.84 kg a.e./ha, No rain) | Percent inhibition of quackgrass 28 DAT [1, 4] | Percent inhibition of quackgrass 28 DAT ([1]; 1.68 kg a.e./ha, No rain) | Percent inhibition of quackgrass 28 DAT [1, 5] | Percent inhibition of guineagrass 15 DAT ([2]; No rain) | Percent inhibition of guineagrass 15 DAT [2, 6] | other results
nonylphenol 8EO | 97% | 83% | 98% | 79% | 100% | 97% | 
2,4,7,9-tetramethyl-5-decyne-4,7-diol 10EO [Adjuvant 2] | 94% | 78% | 98% | 94% | 98% | 94% | 
O=C(O)CNCP(=O)(O)O [glyphosate, N-phosphonomethylglycine] |  |  |  |  |  |  | Mean fresh weight of regrowth (barley cv. Pennco; [7]): 2.83 g; Mean height of regrowth (barley cv. Pennco; [7]): 171 mm; Mean fresh weight of regrowth (barley cv. Pennco; glyphosate 0.42 kg a.e./ha): 1.92 g; Mean height of regrowth (barley cv. Pennco; glyphosate 0.42 kg a.e./ha): 148 mm
nonylphenol 10EO |  |  |  |  | 100% | 81% | 
C12 branched secondary alcohol 10EO [C12 branched 10EO] | 94% | 84% | 100% | 88% | 100% | 98% | Cloud points [3, 8]: >95 °C; Cloud points [3, 9]: 80 °C; Cloud points [3, 10]: 80 °C; Cloud points [3, 11]: 72 °C; Cloud points [3, 12]: 68 °C; Cloud points [3, 13]: 65 °C; Cloud points [3, 14]: 65 °C; Cloud points [3, 15]: 61 °C
C12 branched secondary alcohol 6EO [C12 branched 6EO] |  |  |  |  | 100% | 66% | Cloud points [3, 8]: >95 °C; Cloud points [3, 9]: >95 °C; Cloud points [3, 10]: >95 °C; Cloud points [3, 11]: <25 °C; Cloud points [3, 12]: <25 °C; Cloud points [3, 13]: <25 °C; Cloud points [3, 14]: <25 °C; Cloud points [3, 15]: <25 °C
nonylphenol 12EO |  |  |  |  | 100% | 63% | 
